“Also recorded” adds a separate entry of the source. Where no end group is shown, it is not given here.
What was measured:
[1] = test system: ethanol-induced gastric ulcer model in mice; experiment: Anti-ulcer effect on ethanol-induced gastric ulcer model in mice; format: in vivo; details: single administration; ulcer inhibition rate of test compound / ulcer inhibition rate of Compound 1
Method: Experimental animals: Six-week old C57BL/6JGPt male mice, weighing about 20 g/mouse, were selected, with 10 mice in each group, from GemPharmatech (Chengdu) Co., Ltd., animal license number: SCXK (Chuan) 2020-034. After the experimental animals were divided into groups, they were dosed according to Table 5 one day before the experiment. Among the groups, the model group was given 200 μl of pure water, and the other dose groups were given 200 μl of drug solution. After that, all the animals were fasted for 24 h with free access to water. The next day, 1 h after administration, the mice in each group were given 9 μl/g of absolute ethanol by oral gavage for modeling. After 1 h, the animals were sacrificed by cervical dislocation, the gastric cardia was ligated, the pylorus was occluded, and the whole stomach was removed. 1 mL of 1% formaldehyde solution was injected into the gastric lumen via the glandular stomach, the cardia was ligated, and the stomach was taken out and immediately immersed in 1% formaldehyde solution. After soaking for 30 min, the stomach tissue was taken out and cut open along the greater curvature. The content of the stomach was rinsed off with normal saline, the injury of the gastric mucosa in the mice were observed and measured after being laid flat, and the ulcer index and ulcer inhibition rate were calculated; panoramic photos of the stomach were taken; and finally, the gastric tissue sample was immersed in formalin and fixed. Calculation method for ulcer index: If the length of cord-like injury was greater than 1 mm, the length thereof was measured, with 1 point per millimeter; if the width thereof was greater than 1 mm, the score thereof was doubled according to the number of millimeters of the width; and if the length was less than 1 mm, a score of 0.5 was given, and the scores were added up to obtain the ulcer index of the animal. Method of data statistics: the ulcer index was expressed as mean±standard deviation; the ulcer inhibition rate was calculated by using the median value and mean value of the ulcer index in each dosage group and simulation group; and the data were statistically analyzed by means of Excel, and the difference data of the gastric ulcer index were statistically analyzed by means of independent sample T test.

[2] = test system: RSC96 cells; experiment: Proliferation of RSC96 cells (CCK-8); format: cell-based; details: 0.2, 0.4 and 0.8 ug/ml; 48 h; 0% serum
Method: Glial cells (RSC96 cells) were adjusted to a concentration of 1.0×10^5 to 5.0×10^5/mL for passaging and cultured at 37° C. and 5% CO2 for 24-36 h for biological activity detection. The cells were digested by trypsin, collected, prepared to a concentration of 5×10^4/mL with a serum-free medium, inoculated into a 96-well cell culture plate, with 100 μL per well, i.e., 5000 cells/well, and cultured overnight at 37° C. and 5% CO2. The polypeptide compound of the present invention was prepared to test concentrations (0.2 ug/ml, 0.4 ug/ml, and 0.8 ug/ml) with 0% serum culture medium as experimental groups, and an equal amount of 0% serum drug-free culture medium was added to the control group. They were added to 4 duplicate wells, and the resultants were incubated at 37° C. and 5% CO2 for 48 h. Detection of the proliferation of cells using CCK-8: the old culture medium was removed, and a serum-free medium containing 10% CCK-8 was added to each well. After incubation in an incubator for 2 h, the absorbance at 450 nm was measured by a microplate reader.

[3] = test system: HMEC-1 cells; experiment: Proliferation of HMEC-1 cells (CCK-8); format: cell-based, Human; details: 0.05, 0.2 and 0.8 ug/mL; 48 h; 0% serum
Method: Human microvascular endothelial cells (HMEC-1 cells) were cultured in 10% serum culture medium at 37° C. and 5% CO2, the medium was replaced every 1-2 d, and the cell concentration was controlled to be 4×10^6 cells/mL for passage. Cells were collected, prepared to […] with complete culture medium, inoculated into a 96-well cell culture plate, with 100 μL per well, i.e., 5000 cells/well, and cultured at 37° C. and 5% CO2 until the cells adhered to the wall. The polypeptide compound of the present invention was prepared to test concentrations (0.05 ug/mL, 0.2 ug/mL, and 0.8 ug/mL) with 0% serum culture medium as experimental groups, a positive drug (300 ng/ml) was prepared in the same way and added as a positive control, and an equal amount of 0% serum drug-free culture medium was added to the control group. They were added to 5 duplicate wells, and the resultants were incubated at 37° C. and 5% CO2 for 48 h. Detection of the proliferation of cells using CCK-8: the old culture medium was removed, and a serum-free medium containing 10% CCK-8 was added to each well. After incubation in an incubator for 2 h, the absorbance at 450 nm was measured by a microplate reader.

[4] = test system: chronic atrophic gastritis model in mice; experiment: Therapeutic effect on chronic atrophic gastritis model in mice (MNNG combined with ranitidine); format: in vivo; details: 5 mg/kg daily by gavage, 2 weeks
Method: Method: Chronic atrophic gastritis was induced by MNNG (N-methyl-N-nitro-N-nitrosoguanidine) combined with ranitidine. The mice were free to access to an aqueous solution containing MNNG ([…]), and at the same time, the mice were given ranitidine (8 mg/ml) aqueous solution at a dose of 150 mg/kg by gavage at a fixed time per day for 20 consecutive weeks. After 20 weeks of modeling, on the basis of drinking ordinary distilled water, the mice were given Compound 1 (5 mg/kg) daily by gavage.

Sequence | Anti-ulcer activity (mean relative ulcer inhibition rate) [1] | effect on proliferation of RSC96 cells [2] | effect on proliferation of HMEC-1 cells [3] | repair / therapeutic effect on chronic atrophic gastritis [4] | height of the mucosa in the gastric antrum ([4]; compared with the model group) | number of parietal cells ([4]; compared with the model group) | structure of the gastric gland ([4]; compared with the model group)
AAVLDKLE [Compound 68] | 0.85 | significant proliferation promoting effects | – | – | – | – | –
SMQASLEAEAKGKAE [Compound 1] | 1.00 | significant proliferation promoting effects; also recorded: proliferation-promoting effect | significant proliferation promoting effects; also recorded: proliferation-promoting effect | could promote the repair of chronic atrophic gastritis in mice; also recorded: therapeutic effect | substantially recovered to the normal state | increased significantly | recovered to normal
VDAAVLEKLE [Compound 67] | 0.24 | proliferation-promoting effect | – | – | – | – | –
